Measurements from patent US6603046B1, “Bis-aromatic a,β-unsaturated ketones” (Lica Pharmaceuticals A/S, priority 1992, dated 2003).
≈ marks a conversion by molar mass, not a printed value. Where two headings read alike, the source gives them in different places.

Experiments:
[1] = tested on: chloroquine resistant P. falciparum DD2 strain; experiment: In vitro growth of P. falciparum DD2, 3H-hypoxanthine uptake (Example 15); assay type: cell-based, Plasmodium falciparum; settings: title: percentage inhibition of 3H-hypoxanthine uptake
Strain = H37RV [2] = settings: cited from earlier work
Strain = H37RV [3] = experiment: MIC with and without 10% human serum; assay type: cell-based; settings: Mycobacterium tuberculosis, H37RV
[4] = with 10% Human Serum, read-out: MIC+serum
[5] = without 10% Human Serum, read-out: MIC−serum

In the case of `COc1ccc(/C=C/C(=O)c2ccc(O)cc2)cc1OC` [3,4-Dimethoxy-4′-hydroxychalcone, 3,4-dimethoxy-4′-hydroxychalcone], the “Growth in % of control (mean ± SEM)” value ([1]; 0.5 μg/ml) is reported as 9.3 ± 9.2%, the “Growth in % of control (mean ± SEM)” value ([1]; 1 μg/ml) is reported as 7.1 ± 8.1% and the “Growth in % of control (mean ± SEM)” value ([1]; 5 μg/ml) is reported as 48.5 ± 8.4%. The “Growth in % of control (mean ± SEM)” value ([1]; 10 μg/ml) was 82.6 ± 4.7% and the melting point was 193 to 198 °C.
For `CC[C@@H](CO)NCCN[C@@H](CC)CO` [Ethambutol], the protein binding (Strain = H37RV [2]) is given as “(40% protein”, the MIC (Strain = H37RV [3]; [4]) is given as 2 µg/mL (≈ 9.79 µM) and the MIC (Strain = H37RV [3]; [5]) is given as 1 µg/mL (≈ 4.89 µM).
In the case of `CC(=O)O[C@H]1C[C@@]2(C)[C@@H](C[C@@H](O)[C@H]3[C@@]4(C)CC[C@@H](O)[C@@H](C)[C@@H]4CC[C@@]32C)/C1=C(\CCC=C(C)C)C(=O)O` [Fusidic acid], the protein binding (Strain = H37RV [2]) is given as “(90% protein”, the MIC (Strain = H37RV [3]; [4]) is given as 32 µg/mL (≈ 61.9 µM) and the MIC (Strain = H37RV [3]; [5]) is given as 8 µg/mL (≈ 15.5 µM).
In the case of `CC1COc2c(N3CCN(C)CC3)c(F)cc3c(=O)c(C(=O)O)cn1c23` (centres unmarked) [Ofloxacin], the protein binding (Strain = H37RV [2]) is listed as “(5% protein”, the MIC (Strain = H37RV [3]; [4]) is listed as 0.5 µg/mL (≈ 1.38 µM) and the MIC (Strain = H37RV [3]; [5]) is listed as 0.5 µg/mL (≈ 1.38 µM).
